Test system: male Sprague Dawley rats
Test: Pig‐a assay
Type: in vivo, rat
[1] = 1-Month Study, 250 mg/kg/day, Day 15
[2] = 1-Month Study, 250 mg/kg/day, Day 29
[3] = 1-Month Study, 250 mg/kg/day, Day -1 (pre-treatment)
[4] = 1-Month Study, 500 mg/kg/day, Day 15
[5] = 1-Month Study, 500 mg/kg/day, Day 29
[6] = 1-Month Study, 500 mg/kg/day, Day -1 (pre-treatment)
[7] = 1-Month Study, 1,000 mg/kg/day Days 1-29, Day 57 recovery group
[8] = 1-Month Study, 1,000 mg/kg/day, Day 15
[9] = 1-Month Study, 1,000 mg/kg/day, Day 29
[10] = 1-Month Study, 1,000 mg/kg/day, Day -1 (pre-treatment)
[11] = 2-Week Study, 250 mg/kg/day Days 1-15, Day 16
[12] = 2-Week Study, 500 mg/kg/day Days 1-15, Day 16
[13] = 2-Week Study, 1,000 mg/kg/day Days 1-15, Day 16
[14] = 3-Day Study, 500 mg/kg/day Days 1-3, Day 15
[15] = 3-Day Study, 500 mg/kg/day Days 1-3, Day 30
[16] = 3-Day Study, 500 mg/kg/day Days 1-3, Day 45
[17] = 3-Day Study, 500 mg/kg/day, Day -4 (pre-treatment)
[18] = 3-Day Study, 1,000 mg/kg/day Days 1-3, Day 15

`CC(=O)Nc1ccc(O)cc1` [acetaminophen, Acetaminophen] was tested, and the “%RETs mean ± SD” value [1] was 3.7 ± 0.7%, the “Number of CD59‐Neg RBCs per 10^6 RBCs mean ± SD” value (from here on “Number … per 10^6 RBCs mean ± SD”) [1] was 0.6 ± 0.4 per 10^6 RBCs and the “Number of CD59‐Neg RETs per 10^6 RETs mean ± SD” value (shortened to “Number … per 10^6 RETs mean ± SD”) [1] was 1.8 ± 2.8 per 10^6 RETs. The “%RETs mean ± SD” value [2] was 2.9 ± 0.4%, the “Number … per 10^6 RBCs mean ± SD” value [2] was 0.9 ± 0.3 per 10^6 RBCs and the “Number … per 10^6 RETs mean ± SD” value [2] was 3.0 ± 2.2 per 10^6 RETs. The “%RETs mean ± SD” value [3] was 5.2 ± 0.6%, the “Number … per 10^6 RBCs mean ± SD” value [3] was 0.7 ± 0.8 per 10^6 RBCs and the “Number … per 10^6 RETs mean ± SD” value [3] was 0.6 ± 0.6 per 10^6 RETs. For the same molecule, the “%RETs mean ± SD” value [4] was 3.2 ± 0.5%, the “Number … per 10^6 RBCs mean ± SD” value [4] was 0.3 ± 0.2 per 10^6 RBCs and the “Number … per 10^6 RETs mean ± SD” value [4] was 1.0 ± 1.0 per 10^6 RETs. The “%RETs mean ± SD” value [5] was 2.0 ± 0.4 %, the “Number … per 10^6 RBCs mean ± SD” value [5] was 0.5 ± 0.1 per 10^6 RBCs and the “Number … per 10^6 RETs mean ± SD” value [5] was 1.7 ± 1.9 per 10^6 RETs. For the same molecule, the “%RETs mean ± SD” value [6] was 5.5 ± 1.3 %, the “Number … per 10^6 RBCs mean ± SD” value [6] was 0.3 ± 0.1 per 10^6 RBCs and the “Number … per 10^6 RETs mean ± SD” value [6] was 0.6 ± 0.7 per 10^6 RETs. The “%RETs mean ± SD” value [7] was 2.8 ± 0.6%, the “Number … per 10^6 RBCs mean ± SD” value [7] was 0.9 ± 0.5 per 10^6 RBCs and the “Number … per 10^6 RETs mean ± SD” value [7] was 0.5 ± 0.4 per 10^6 RETs. The “%RETs mean ± SD” value [8] was 2.8 ± 1.4%, the “Number … per 10^6 RBCs mean ± SD” value [8] was 0.6 ± 0.4 per 10^6 RBCs and the “Number … per 10^6 RETs mean ± SD” value [8] was 1.6 ± 1.5 per 10^6 RETs. The “%RETs mean ± SD” value [9] was 2.4 ± 0.9%, the “Number … per 10^6 RBCs mean ± SD” value [9] was 1.6 ± 1.6 per 10^6 RBCs and the “Number … per 10^6 RETs mean ± SD” value [9] was 4.5 ± 5.9 per 10^6 RETs. For the same molecule, the “%RETs mean ± SD” value [10] was 4.6 ± 0.6%, the “Number … per 10^6 RBCs mean ± SD” value [10] was 0.5 ± 0.3 per 10^6 RBCs and the “Number … per 10^6 RETs mean ± SD” value [10] was 0.7 ± 0.7 per 10^6 RETs. The “%RETs mean ± SD” value [11] was 2.7 ± 1.0%, the “Number … per 10^6 RBCs mean ± SD” value [11] was 0.7 ± 0.3 per 10^6 RBCs and the “Number … per 10^6 RETs mean ± SD” value [11] was 1.4 ± 1.1 per 10^6 RETs. The “%RETs mean ± SD” value [12] was 2.4 ± 0.8 %, the “Number … per 10^6 RBCs mean ± SD” value [12] was 1.1 ± 1.7 per 10^6 RBCs and the “Number … per 10^6 RETs mean ± SD” value [12] was 0.4 ± 0.4 per 10^6 RETs. The “%RETs mean ± SD” value [13] was 3.4 ± 0.7%, the “Number … per 10^6 RBCs mean ± SD” value [13] was 0.5 ± 0.3 per 10^6 RBCs and the “Number … per 10^6 RETs mean ± SD” value [13] was 1.1 ± 0.9 per 10^6 RETs. For the same molecule, the “%RETs mean ± SD” value [14] was 3.6 ± 0.6%, the “Number … per 10^6 RBCs mean ± SD” value [14] was 0.4 ± 0.2 per 10^6 RBCs and the “Number … per 10^6 RETs mean ± SD” value [14] was 0.9 ± 0.7 per 10^6 RETs. The “%RETs mean ± SD” value [15] was 3.1 ± 0.2%, the “Number … per 10^6 RBCs mean ± SD” value [15] was 0.5 ± 0.3 per 10^6 RBCs and the “Number … per 10^6 RETs mean ± SD” value [15] was 1.2 ± 1.2 per 10^6 RETs. For the same molecule, the “%RETs mean ± SD” value [16] was 2.7 ± 0.4%, the “Number … per 10^6 RBCs mean ± SD” value [16] was 0.4 ± 0.2 per 10^6 RBCs and the “Number … per 10^6 RETs mean ± SD” value [16] was 0.7 ± 1.3 per 10^6 RETs. The “%RETs mean ± SD” value [17] was 3.3 ± 0.8%, the “Number … per 10^6 RBCs mean ± SD” value [17] was 0.4 ± 0.2 per 10^6 RBCs and the “Number … per 10^6 RETs mean ± SD” value [17] was 2.0 ± 2.1 per 10^6 RETs. The “%RETs mean ± SD” value [18] was 4.8 ± 0.8 %, the “Number … per 10^6 RBCs mean ± SD” value [18] was 0.6 ± 0.2 per 10^6 RBCs and the “Number … per 10^6 RETs mean ± SD” value [18] was 1.8 ± 2.4 per 10^6 RETs. For the same molecule, the “%RETs mean ± SD” value (3-Day Study, 1,000 mg/kg/day Days 1-3, Day 30) was 3.3 ± 0.4%.
